Legend:
Aspergillus niger = test: Fungicide effect by antibiogram type method; assay type: cell-based; settings: positive control
From the text: In order to evaluate any impact of the sugar esters used according to the invention on microorganisms, the fungicide effect was searched for by an antibiogram type method. The method consists of: • spreading a solution contaminated with the mold Aspergillus niger on the surface of a Petri dish containing glucose gel growth medium with chloramphenicol. • arrange 4 sterile antibiogram disks of 6 mm diameter per Petri dish. • inoculate with 3 drops (0.071 g) of solution to test or control solution per disk. The dishes are next placed in the incubator at 25° C. for 5 days. Measurement of the inhibitory diameter is carried out every day.

maize seeds = test: Germination of maize seeds, comparison of surfactants (Examples 13-19); assay type: in vivo; settings: maize seeds immersed 1 h in 0.75% solution
Experimental: The treatment of the maize seeds consists of immersing them 1 h in a solution comprising water alone (control batch) or in a solution composed of 98.25% water and 0.75% of a polyol derivative non-ionic surfactant (treated batch, Sub4). The seeds are next dried in a heating tunnel at 45° C. for one hour. Two batch repetitions of 16 seeds are deposited on Petri dishes containing a medium composed of 2% Agar Agar and 98% water. The Petri dishes are kept at ambient temperature and in darkness. Each day the number of seeds that have germinated (having a radicle) is counted. The treatment of the maize seeds consists of immersing them 1 h in a solution comprising water alone (control batch) or in a solution composed of 98.25% water and 0.75% of a polyol derivative non-ionic surfactant (treated batch, Sub1). The seeds are next dried in a heating tunnel at 45° C. for one hour. Two batch repetitions of 16 seeds are deposited on Petri dishes containing a medium composed of 2% Agar Agar and 98% water. The Petri dishes are kept at ambient temperature and in darkness. Each day the number of seeds that have germinated (having a radicle) is counted. The treatment of the maize seeds consists of immersing them 1 h in a solution comprising water alone (control batch) or in a solution composed of 98.25% water and 0.75% of a polyol derivative non-ionic surfactant (treated batch, Sub7). The seeds are next dried in a heating tunnel at 45° C. for one hour. Two batch repetitions of 16 seeds are deposited on Petri dishes containing a medium composed of 2% Agar Agar and 98% water. The Petri dishes are kept at ambient temperature and in darkness. Each day the number of seeds that have germinated (having a radicle) is counted. The treatment of the maize seeds consists of immersing them 1 h in a solution comprising water alone (control batch) or in a solution composed of 98.25% water and 0.75% of a polyol derivative non-ionic surfactant (treated batch, Sub2). The seeds are next dried in a heating tunnel at 45° C. for one hour. Two batch repetitions of 16 seeds are deposited on Petri dishes containing a medium composed of 2% Agar Agar and 98% water. The Petri dishes are kept at ambient temperature and in darkness. Each day the number of seeds that have germinated (having a radicle) is counted. The treatment of the maize seeds consists of immersing them 1 h in a solution comprising water alone (control batch) or in a solution composed of 98.25% water and 0.75% of a polyol derivative non-ionic surfactant (treated batch, Sub3). The seeds are next dried in a heating tunnel at 45° C. for one hour. Two batch repetitions of 16 seeds are deposited on Petri dishes containing a medium composed of 2% Agar Agar and 98% water. The treatment of the maize seeds consists of immersing them 1 h in a solution comprising water alone (control batch) or in a solution composed of 98.25% water and 0.75% of a polyol derivative non-ionic surfactant (treated batch, Sub6). The seeds are next dried in a heating tunnel at 45° C. for one hour. Two batch repetitions of 16 seeds are deposited on Petri dishes containing a medium composed of 2% Agar Agar and 98% water. The treatment of the maize seeds consists of immersing them 1 h in a solution comprising water alone (control batch) or in a solution composed of 98.25% water and 0.75% of a polyol derivative non-ionic surfactant (treated batch, Sub5). The seeds are next dried in a heating tunnel at 45° C. for one hour. Two batch repetitions of 16 seeds are deposited on Petri dishes containing a medium composed of 2% Agar Agar and 98% water. The Petri dishes are kept at ambient temperature and in darkness. Each day the number of seeds that have germinated (having a radicle) is counted.

| Compound | germination rate (maize seeds; D1) [%] | germination rate (maize seeds; D2) [%] | other results |
| --- | --- | --- | --- |
| Fc1ccc([C@]2(Cn3cncn3)O[C@H]2c2ccccc2Cl)cc1 (racemic) [Epoxiconazole, reference compound] |  |  | Inhibitory diameter (Aspergillus niger; D1): 0 mm; Inhibitory diameter (Aspergillus niger; D2): 32 mm; Inhibitory diameter (Aspergillus niger; D3): 30 mm; Inhibitory diameter (Aspergillus niger; D4): 30 mm; Inhibitory diameter (Aspergillus niger; D5): 29 mm |
| CCCCCCCCCCCC(=O)N(C)C[C@H](O)[C@@H](O)[C@H](O)[C@H](O)CO [N-lauroyl-N-methyl glucamide] | 28 | 65 |  |
| CCCCCCCCCCO[C@@H]1O[C@H](CO)[C@@H](O)[C@H](O)[C@H]1O [decyl glucoside, Decyl glucoside] | 19 | 84 |  |
| Glucose stearate | 34 | 78 |  |
| Methylglucose dioleate | 18 | 65 |  |
| Polyethoxylated sorbitan laurate | 25 | 78 |  |
| Sorbitan laurate | 31 | 78 |  |
| Sucrose palmitate | 28 | 78 |  |
